In a melting point compilation (Tetko et al.; mined from patent text by program, amines drawn as free bases though some values may be those of a salt):

Row | Compound | melting point
1 | O=C(O)c1cc2cc(F)c(F)cc2nc1Cl | 232 °C
2 | COc1cc(C(=O)N(C(C)C)C(C)C)ccc1OCCCCCOc1ccc(C#N)cc1 | 90 to 92 °C
3 | Cc1ccc(C(=O)O)c(-c2ccc(Cl)c(C(=O)NCC34CC5CC(CC(C5)C3)C4)c2)n1 | 209 to 211 °C
4 | CCCSc1nc2ccc(Br)cc2c(=O)n1CCC | 65 to 67 °C
5 | CCCOc1ccccc1-c1nc2nc(OCC)ncc2c(=O)[nH]1 | 196 to 198 °C
6 | CN1CC(N(C)[C@@H]2c3cc(C#N)ccc3OC(C)(C)[C@H]2O)=CC1=O (relative stereo) | 266 to 269 °C
7 | CC1(C)CC(=C(c2ccc(O)cc2)c2ccc(OCCCC(=O)O)cc2)CC(C)(C)C1 | 203 to 204 °C
8 | Cc1ccccc1Nc1nc(N2CCCC2)nc2ccccc12 | 152 to 154 °C
9 | CCOCCCC1(O)c2ccccc2C=Cc2ccc(I)cc21 (configuration not stated) | 95 to 105 °C
10 | N#Cc1cnn(-c2c(Cl)cc(C(F)(F)F)cc2Cl)n1 | 51 to 53 °C
11 | CCCCOc1ccc(OCC2(O)CN3CCC2CC3)cc1 (configuration not stated) | 110 to 112 °C
12 | CCNc1ccc2nnc(-c3ncc([N+](=O)[O-])n3C)n2n1 | 258 to 263 °C
13 | N#Cc1cnc2n(c1=O)CCC2 | 119 to 121 °C
14 | O=S(=O)(Nc1cccc(OCc2csc(-c3ccccc3)n2)c1)C(F)(F)F | 113 to 115 °C
15 | C#CCOc1cc(-c2ncc(C(F)(F)F)cc2F)c(F)cc1Cl | 68 to 70 °C
16 | CS(=O)(=O)c1ccc(/C=C/c2cc(/C=C/c3ccc4cc[nH]c4c3)n[nH]2)cc1 | 260 to 268 °C
17 | CCOC(=O)CCc1ccnc(O)c1 | 73 to 76.5 °C
18 | CNc1ncnc2c1ncn2Cc1c(Cl)cccc1Cl | 219 to 220 °C
19 | CC(C)(C)OC(=O)c1ccc(NC#N)cc1 | 94 to 95 °C
20 | COc1nc2ccc(Cl)cc2c(-c2ccccc2Cl)c1C(=O)O | 188 to 190 °C
21 | CCOC(=O)CSc1ncnc2c(O)n(C(C)(C)C)nc12 | 129 to 131 °C
22 | CC(C(=O)NCC(=O)O)C(SC(=O)c1ccccc1)SC(=O)c1ccccc1 (configuration not stated) | 113 to 114 °C
23 | O=C(CN1C(=O)c2ccccc2C1=O)Nc1ccccc1-c1ccccc1 | 204 °C
24 | COC(=O)CCc1cc2cc(Cl)ccc2n1S(=O)(=O)c1cccc(C)c1 | 105 to 108 °C
25 | CC#CCOc1ccc(S(=O)(=O)NC2(C(=O)NO)CCCC2)cc1 | 66 to 68 °C
26 | O=C(O)COc1cccc2c1OCc1sc(SCC(c3ccccc3)c3ccccc3)nc1-2 | 182 to 184 °C

Row | Compound | melting point
27 | Cc1cc(N)nc(CCc2nc3cc(Br)cnc3[nH]2)c1 | 216 °C
28 | C=CCOc1cc(C=O)ccc1O | 66 to 67 °C
29 | COC(=O)Cc1ccccc1OCc1ccc(OCCc2nc(-c3ccccc3)oc2C)nc1 | 78 to 79 °C
30 | CC(NC(=S)NC(COC(=O)C(C)(C)C)Cc1ccccc1)c1ccc([N+](=O)[O-])cc1 (configuration not stated) | 99 to 100 °C
31 | O=[N+]([O-])c1ccc(Oc2ccc(C(F)(F)F)cc2Cl)nc1O | 87 to 93 °C
32 | O=C(CCCCl)c1ccc2c(c1)Cc1cc(C(=O)CCCCl)ccc1-2 | 172 to 175 °C
33 | O=c1[nH]c2ccc(Cl)cc2n1-c1ccc(Cl)cc1 | 239 °C
34 | CC1(C)C(=O)Oc2ccc(Br)cc21 | 55 to 56 °C
35 | CCOc1nc(N)c2ncn(C3CCCCC3)c2n1 | 134 to 136 °C
36 | CC(C)Sc1cc([Si](C)(C)C)oc1C(=O)O | 181 to 183 °C
37 | CCOC(=O)c1c(Cn2cncn2)nc2ccc(Cl)cc2c1-c1ccccc1 | 114 to 116 °C
38 | N#CCCNC(=O)c1cccc(-c2cccc3cn(Cc4cccc(C(F)(F)F)c4)nc23)c1 | 174 to 175 °C
39 | CC(=O)Nc1ccc(C23CC2C(=O)N(C)C3=O)cc1 (configuration not stated) | 183 to 184 °C
40 | O=c1[nH]c2ccccc2n1C/C=C/CCl | 120 °C
41 | O=C(O)C(CCCCCc1ccc(Cl)cc1)S(=O)(=O)c1cccc(Cl)c1 (configuration not stated) | 104 to 106 °C
42 | COC(=O)C(=C/c1ccccc1)/C(=C\c1cc(OC)c(OC)c(OC)c1)C(=O)O | 131 to 133 °C
43 | Nc1sc2c(c1C(=O)c1ccsc1)CCCC2 | 133 to 135 °C
44 | O=C(O)Cc1c(C(=O)c2cccc(Br)c2)[nH]c2cc(Cl)ccc12 | 215 to 218 °C
45 | Cn1cc(C(=O)O)c(=O)c2cc(Cl)c(N3CCOCC3)cc21 | 334 °C
46 | COc1ccc(-c2cc(=S)n(Cc3ccc(Cl)cc3Cl)nc2-c2ccc(OC)cc2)cc1 | 170 °C
47 | CC(N)C(=O)NC(Cc1ccccc1)C(=O)NCC(=O)Oc1c(Cl)c(Cl)c(Cl)c(Cl)c1Cl (configuration not stated) | 180 to 183 °C
48 | COc1cc(OC)cc(-c2ccc(N(C)CCN(C)c3ccc(-c4cc(OC)cc(OC)c4)nc3)cn2)c1 | 139 to 141 °C
49 | CCC(=O)NC(Cc1ccccc1)c1ccccn1 (configuration not stated) | 91 to 93 °C
50 | CC1(C)CC(C)(C)c2cc(Cl)c(O)cc21 | 52 °C
51 | O=C(O)c1cn(Cc2c(F)cccc2Cl)nn1 | 274 to 276 °C
52 | CCOC(=O)Cc1nn(Cc2nc(-c3ccccc3C(F)(F)F)no2)c(=O)c2ccccc12 | 111 to 115 °C

Row | Compound | melting point
53 | CCCC[C@H](NC(=O)[C@H](CCC(=O)O)NC(=O)OCc1ccccc1)C(=O)CSCc1ccco1 | 67 to 71 °C
54 | COc1ccccc1CNc1ccc2cc(Nc3ncc(C(F)(F)F)o3)ccc2n1 | 166 °C
55 | CC(C)Cn1cnc2c(N)nc3cccc(-c4ccccc4)c3c21 | 263 to 265 °C
56 | CC(=O)C(c1ccc(Cl)cc1)c1c(Cl)cc(-n2ncc(=O)[nH]c2=O)cc1Cl (configuration not stated) | 208 °C
57 | Cc1ccc(Br)c(C)c1C#N | 60 °C
58 | CC(OC(=O)OCC(=O)N(C)C)OC(=C1C(=O)N(C(N)=O)c2cc(Cl)c(F)cc21)c1cccs1 (configuration not stated) | 194 to 196 °C
59 | CC(C)n1nc(-c2sc(NCc3ccco3)nc2-c2ccccc2)ccc1=O | 115 to 116 °C
60 | CC1=Nc2c(nc(N)[nH]c2=O)NC1C (configuration not stated) | > 300 °C
61 | COC(=O)C=CCOc1ccc(F)c(C(N)=O)c1F | 122 to 123 °C
62 | Cc1c(C)c2c(c(C)c1NC(=O)CC(C)C)C(O)(c1ccc3ccccc3c1)C(C)(C)O2 (configuration not stated) | 108 to 110 °C
63 | CNc1cc2c(cc1Cl)CCN(C)C[C@@H]2c1ccccc1 | 98 to 100 °C
64 | Cc1cc(Cl)ccc1OCC(=O)N1Cc2ccc(C(=O)c3ccc(Cl)cc3)n2Cc2ccccc21 | 175 to 176 °C
65 | Cn1ncc(N2CCCCC2)c(C=NO)c1=O | 170 to 171 °C
66 | CCCNC(=O)c1nc(-c2ccccc2)c(-c2ccc(=O)n(CC)n2)s1 | 106 to 108 °C
67 | CC1CCC(=NNc2ccccc2)c2ncc(C(=O)NN)c(=O)n21 (configuration not stated) | 205 to 207 °C
68 | CCCCCN(CCC12CC3CC(CC(C3)C1)C2)C(=O)NC(C)CCc1ccncc1 (configuration not stated) | 128 to 129 °C
69 | COc1ccc(-c2cnoc2-c2ccc(OC(C)C)cc2O)cc1 | 148 to 149 °C
70 | Cc1ccc2nc3c(nc2c1)SC(=C(C#N)C#N)S3 | 265 to 267 °C
71 | Cn1cc(C2=C(c3cn(C)c4ccccc34)C(=O)NC2=O)c2ccccc21 | > 300 °C
72 | COc1cc([N+](=O)[O-])c(Br)cc1OCc1ccccc1 | 134 to 135 °C
73 | COC(=O)C1=C(C(=O)OC)c2c(c3ccccc3n2C)CC1 | 113 °C
74 | CC(C)NC[C@H](O)COc1ccc(OCc2ccccc2)cc1 | 93 to 95 °C
75 | Cc1cccc(C(=O)Nc2cn(C3CCCCO3)nc2C(=O)NCC(F)(F)F)n1 (configuration not stated) | 184 to 185 °C
76 | CCOC(=O)c1cnc2sc(C)c(C)n12 | 60 to 61 °C
77 | CCCCc1c2c(nc3cc(F)cc(F)c13)-c1cc3c(c(=O)n1C2)COC(=O)CC3(O)CC (configuration not stated) | 190 °C
78 | CCSC(C)C(=O)N(CC)c1cn(-c2cccnc2)nc1Cl (configuration not stated) | 65 to 66 °C

Row | Compound | melting point
79 | COCc1ccc(/C=C/c2c(OC)cc3c(c2OC)C(C)(C)CCC3(C)C)cc1 | 66 to 68 °C
80 | COc1ccc(CSc2cccc(C(=O)Nc3ccc(C#N)cn3)c2)cc1 | 163 to 164 °C
81 | Oc1ccc(-c2ncnc(C(F)(F)F)c2Cl)cc1 | 149 to 151 °C
82 | NC(=O)NN=Cc1ccc(Oc2ccc([N+](=O)[O-])cc2)cc1 | 221 to 222 °C
83 | COc1c([N+](=O)[O-])cc(C#N)c(F)c1O | 112 to 113 °C
84 | NC(=O)c1cc2c(Oc3ccc(-n4ccnc4)cc3)cncc2s1 | 310 to 312 °C
85 | CC(C)S(=O)(=O)NCC(C)(F)c1ccc(-c2cccc3c2CC(=O)N3)cc1 (configuration not stated) | 86 to 87 °C
86 | Nc1ccc(CC2CCN(S(=O)(=O)c3ccccc3)CC2)cc1 | 158 °C
87 | CCC1(CC)C(=O)N(C(C)(C)CO)CC(C)(C)N1OC(C)(C)C#N | 58 to 66 °C
88 | CN1CC2=C(n3cnc(C#Cc4ccccc4)c3C1)S(=O)C=C2 (configuration not stated) | 143 to 144 °C
89 | COc1ccnc(Cl)c1N | 86 to 87 °C
90 | CCCCN(CC(O)C(Cc1ccccc1)NC(=O)C(CC(N)=O)NC(=O)NCc1ccccc1)C(=O)NC(C)(C)C (configuration not stated) | 166 to 167 °C
91 | Cc1ccc2c(C#N)cn(-c3ccc(C(C)C)cc3Br)c2n1 | 176 °C
92 | CCCC(=O)Nc1nn(COCC[Si](C)(C)C)c2cc(-c3ccc(SC)cc3)ccc12 | 225 °C
93 | Clc1nc(-c2cccnc2)[nH]c1Cl | 237 to 238 °C
94 | Cc1ccccc1N1CNC(=O)C12CCN(C(=O)c1cc(C(F)(F)F)cc(C(F)(F)F)c1)CC2 | 164 to 168 °C
95 | CC(=O)N1CCCC2(Cc3ccc(Br)cc3)C(=O)N(c3cc(Cl)nc(Cl)c3)C(=O)N12 (configuration not stated) | 91 °C
96 | COc1ccc(Br)cc1S(=O)(=O)NCCCl | 150 °C
97 | CCCCSCC(=O)c1ccc2[nH]c(=O)[nH]c2c1 | 211 to 213 °C
98 | O=[N+]([O-])c1ccc(NCCO)nc1NCCO | 130 to 131 °C
99 | CCOC(=O)c1cn(C2CC2)c2c(F)c(F)c(Cl)cc2c1=O | 169 to 172 °C
100 | COc1ccc(CNc2c(C)c(C)c3c(c2C)C(c2ccc(F)cc2)C(C)(C)O3)cc1 (configuration not stated) | 114 to 115 °C
101 | CN1c2ccccc2CN(C(=O)c2ccc(-c3ccccc3)cc2)c2ccccc21 | 198 to 201 °C
102 | O=P1(O)Oc2c(-c3ccc(Cl)cc3)cc(Cl)cc2-c2ccc(Cl)cc21 | 260 °C
